In patent US11339207B2, “Methods and compounds for the treatment or prevention of severe influenza” (priority 2016, dated 2022):
Like-named read-outs stand apart in the source and are kept apart here.

Key:
[1] = test system: PBMCs plus granulocytes stimulated with A549 viral soup; type: cell-based, human; conditions: immune cells, pre-incubation, FIG. 8
[2] = test system: p38MAPK and HSP27 phosphorylation in A549 cells; experiment: Western blotting of p38MAPK and HSP27 phosphorylation in A549 cells after A549 viral soup; type: cell-based, human; conditions: FIG. 6
[3] = test system: HSP27 phosphorylation in HUVEC cells; experiment: Western blotting of HSP27 phosphorylation in HUVEC cells after HBEC viral soup; type: cell-based, human; conditions: pre-incubation
[4] = test system: HSP27 phosphorylation in Peripheral Blood Mononuclear Cells (PBMCs); experiment: Western blotting of HSP27 phosphorylation in immune cells (PBMCs) after A549 viral soup; type: cell-based, human; conditions: pre-incubation, FIG. 8
influenza virus = conditions: 14% among controls, cited from earlier work
[5] = test system: HUVECs stimulated with HBEC viral soup; type: cell-based, human; conditions: for iMax IP10: maximal inhibition, HUVEC, HBEC viral soup, secreted IP10; for levels of IP10 at higher drug concentrations: endothelial cells (HUVECs) stimulated with 70% HBEC viral soup, FIG. 10

Cc1cc(F)ccc1-c1nc(NC(CO)CO)nc2c1ccc(=O)n2-c1c(F)cccc1F [Dilmapimod, 8-(2,6-difluorophenyl)-2-(1,3-dihydroxypropan-2-ylamino)-4-(4-fluoro-2-methylphenyl)pyrido[2,3-d]pyrimidin-7-one]
A549 viral soup induced release of CXCL8 [1]: significantly attenuate
A549 viral soup induced release of IL-1-β [1]: significantly attenuate
A549 viral soup induced release of IL-6 [1]: significantly attenuate
A549 viral soup induced release of TNFα [1]: significantly attenuate
induction of HSP27 phosphorylation by A549 viral soup [2]: dose dependently inhibit
induction of p38MAPK phosphorylation by A549 viral soup [2]: dose dependently inhibit
induction of HSP27 phosphorylation by HBEC viral soup [3]: dose dependently inhibit
induction of HSP27 phosphorylation by A549 viral soup [4]: dose dependently inhibit

CC[C@H]1OC(=O)[C@H](C)[C@@H](O[C@H]2C[C@@](C)(OC)[C@@H](O)[C@H](C)O2)[C@H](C)[C@@H](O[C@@H]2O[C@H](C)C[C@H](N(C)C)[C@H]2O)[C@](C)(O)C[C@@H](C)C(=O)[C@H](C)[C@@H](O)[C@]1(C)O [EM, erythromycin]
survival rate of the virus-infected mice at Day 20 of infection (influenza virus; 1.0 mg/kg/d): 42%
survival rate of the virus-infected mice at Day 20 of infection (influenza virus; 3.3 mg/kg/d): 57%

CNC(=O)c1ccc(C)c(-n2c(C)cc(OCc3ccc(F)cc3F)c(Br)c2=O)c1 [PH797804, 3-[3-bromo-4-[(2,4-difluorophenyl)methoxy]-6-methyl-2-oxopyridin-1-yl]-N,4-dimethylbenzamide]
A549 viral soup induced release of CXCL8 [1]: significantly attenuate
A549 viral soup induced release of IL-1-β [1]: significantly attenuate
A549 viral soup induced release of IL-6 [1]: significantly attenuate
A549 viral soup induced release of TNFα [1]: significantly attenuate
iMax IP10 [5]: 88%
induction of HSP27 phosphorylation by A549 viral soup [2]: dose dependently inhibit
induction of p38MAPK phosphorylation by A549 viral soup [2]: dose dependently inhibit
induction of HSP27 phosphorylation by HBEC viral soup [3]: dose dependently inhibit
induction of HSP27 phosphorylation by A549 viral soup [4]: dose dependently inhibit

CC[C@H](C)C(=O)O[C@H]1C[C@H](O)C=C2C=C[C@H](C)[C@H](CC[C@@H](O)C[C@@H](O)CC(=O)O)[C@H]21 [Pravastatin]
iMax IP10 [5]: 35%

Nc1ccc2ncnc(NCCc3ccc(Oc4ccccc4)cc3)c2c1 [QNZ (EVP4593)]
iMax IP10 [5]: 72%

COc1cc(F)c(F)c(Nc2ccc(I)cc2F)c1NS(=O)(=O)C1(C[C@H](O)CO)CC1 [Refametinib]
levels of IP10 at higher drug concentrations [5]: appeared to increase levels of IP10

Selumetinib
levels of IP10 at higher drug concentrations [5]: appeared to increase levels of IP10
